Experimental data reported in US20260272879A1, “ANION-BINDING AROMATIC OLIGOAMIDE MACROCYCLES AND METHODS OF MAKING AND USING SAME” (The Research Foundation for The State University of New York, priority 2023, published 2026).

What was measured:
Solubility = type: physicochemical
[1] = 1H NMR titration, binding of nitrate; details: n-Bu4N^+ salt, CD3CN/CDCl3 (1/9, v/v), room temperature
Excerpt: (§1) Anion binding with four amides, i.e., L1mer-L4mer, was studied in the mixed solvents of CD3CN/CDCl3 (1/9, v/v) by titrating an amide host with 0 to 5 equivalents of tetrabutylammonium (n-Bu4N^+) salt of the corresponding anion. The binding of chloride, bromide, iodide, and nitrate was examined with the four amides in CDCl3 containing 10% CD3CN. The titration data were collected by monitoring the changes in chemical shifts of the backbone amide protons and the inner aromatic protons with varying ratios of the anion guests. Job plots indicate that these linear oligoamides and their anion guests bind in a 1:1 stoichiometry.
(§2) The binding of anions by macrocycle 7c was examined in CH3CN/CHCl3 (6/4, v/v) and in DMSO by titrating with various equivalents of the salts of chloride, iodide. nitrate, and dihydrogen phosphate, with tetrabutylammonium (n-Bu4N^+) being the counterion ion. Following the changes in the chemical shifts of backbone amide protons and “inner” aromatic protons allowed the determination of binding constants.
^1H NMR titration methods. Titrations of c5a and c5b with anions as their tetra-n-butylammonium (TBA), tetra-ethylammonium (TEA) and tetra-methylammonium (TMA) salts were carried out by ^1H NMR (400 MHz) at 25° C. 0.4 mL of corresponding hosts solutions were prepared in the rubber-cap NMR tubes. Aliquots of concentrated guest solution containing hosts were added into the NMR tubes using 20 microliter pipette. An initial ^1H NMR spectrum was collected and additional spectra were obtained after each injection of guest solution. All titration ^1H NMR spectra were stacked together and the chemical shifts of the internal aromatic CH proton were then fitted to 1:1 binding model using BindFit v0.5 (http://app.supramolecular.org/bindfit/) to evaluate binding constants to anions.

[2] = 1H NMR titration, binding of chloride; details: n-Bu4N^+ salt, CD3CN/CDCl3 (1/9, v/v), room temperature
Procedure: ^1H NMR Titration methods. Titrations of 4c and 6c with anions as their tetra-n-butyl ammonium (TBA) salts were carried out by ^1H NMR (400 MHz on Bruker-400) at room temperature (298 K). 0.5 mL of receptor 4c (5.0 mM) or 6c (2.0 mM) were prepared in the rubber-cap NMR tubes. Aliquots of concentrated TBACl or TBAI solution (50 mM for the titration of 4c and 20 mM for the titration of 6c) containing the same amount of receptors were added into the receptor solution using 20 microliter pipette. An initial ^1H NMR spectrum was collected and additional spectra were obtained after each injection of TBACl or TBAI solution. All titration ^1H NMR spectra were stacked together and the chemical shifts of amide protons were then fitted to the proposed 1:1 binding model using BindFit v0.5 (http://app.supramolecular.org/bindfit/).
as §1, §2
^1H NMR titration methods. Titrations of c5a and c5b with anions as their tetra-n-butylammonium (TBA), tetra-ethylammonium (TEA) and tetra-methylammonium (TMA) salts were carried out by ^1H NMR (400 MHz) at 25° C. […]

[3] = pH 8.3, in water; cited from earlier work

With `COCCOCCOCCOCC(C)(C)C(=O)Nc1ccc2cc1C(=O)Nc1ccc(NC(=O)C(C)(C)COCCOCCOCCOC)c(c1)C(=O)Nc1ccc(NC(=O)C(C)(C)COCCOCCOCCOC)c(c1)C(=O)Nc1ccc(NC(=O)C(C)(C)COCCOCCOCCOC)c(c1)C(=O)Nc1ccc(NC(=O)C(C)(C)COCCOCCOCCOC)c(c1)C(=O)N2` [c5b] the “solubility in organic solvents” value (Solubility; variety of / many organic solvents) was “soluble” and the solubility in water (Solubility; water) was ~ 1 mM.

In the case of `CCCCCCCCCC(=O)Nc1ccc(NC(=O)C(C)(C)COCCCCCCCC)c(C(=O)Nc2ccc(NC(=O)C(C)(C)COCCCCCCCC)c(C(=O)Nc3ccc(NC(=O)C(C)(C)COCCCCCCCC)c(C(=O)Nc4ccc(NC(=O)C(C)(C)COCCCCCCCC)c(C(=O)NCCCCCC)c4)c3)c2)c1` [Compound L4mer], the Ka of nitrate [1] was ~10000 M⁻¹ and the Ka of chloride [2] was “over 1,000 M^−1”.

In the case of “SBP: sulfate-binding protein (SBP) from the gram-negative bacterium S. typhimurium”, the “Ka for the sulfate ion” value [3] is given as 8.3e+06 M⁻¹.

Work on `CCCCCCCCCC(=O)Nc1ccc(NC(=O)C(C)(C)COCCCCCCCC)c(C(=O)NCCCCCC)c1` [Compound L1mer] yielded a Ka of chloride [2] of 39 M⁻¹.
